# Source: PMC9765455 (Science Translational Medicine, 2022)
# Several values for one entry are separate records, joined by “and”; a condition that tells them apart may be missing. Identical values can stand only once. Like-named read-outs stand apart in the source and are kept apart here.
# Assays:
# SARS-CoV-2 Delta variant [1] = assay type: in vivo, Syrian hamsters; settings: for viral load in the lungs of contact hamsters: 6 days after co-housing
# SARS-CoV-2 Delta variant [2] = tested on: SARS-CoV-2 Delta variant; design: species or system Syrian hamsters; settings: hamster, in vivo
# SARS-CoV-2 Delta variant [3] = tested on: SARS-CoV-2 Delta variant; design: species or system Syrian hamsters; settings: hamster, in vivo; remark: listed apart in the source
# SARS-CoV-2 Delta variant [4] = assay: Light sheet microscopy of whole lungs (viral antigen distribution); design: species or system Syrian hamsters; settings: hamster, in vivo
# SARS-CoV-2 Delta variant [5] = assay type: in vivo, Syrian hamsters; settings: for lung pathology / histopathological findings of viral pneumonia: hamster, in vivo; for histopathological severity of viral pneumonia / viral RNA by ISH: therapeutic treatment
# SARS-CoV-2 Delta variant [6] = assay: Antiviral activity of main protease inhibitors with P-gp inhibitor CP-100356 (intracellular viral RNA); assay type: cell-based; settings: Vero-TMPRSS2; S-217622 100 nM, nirmatrelvir 300 nM; CP-100356 1 μM
# SARS-CoV-2 Delta variant [7] = assay: Time of addition assay in Calu-3 cells; assay type: cell-based
# SARS-CoV-2 Delta variant [8] = assay type: cell-based; settings: Vero-TMPRSS2 and Calu-3 cells
# SARS-CoV-2 Delta variant [9] = assay type: cell-based; settings: HBE cells
# SARS-CoV-2 Delta variant [10] = assay type: cell-based; settings: HBE cells, 333 nM or more; detection limit of the plaque assay
# [11] = tested on: SARS-CoV-2 Omicron variant (lineage BA.1); assay type: cell-based; settings: Vero-TMPRSS2, fig. S5
# SARS-CoV-2 Delta variant [12] = assay type: cell-based; settings: Vero-TMPRSS2 and Calu-3 cells; remark: listed apart in the source
# [13] = prophylactic, MPV, S-217622 30 mg/kg
# [14] = prophylactic, S-217622 200 mg/kg
smiles,measurement,setting,value
"CC(C)C(=O)OC[C@H]1O[C@@H](n2ccc(NO)nc2=O)[C@H](O)[C@@H]1O [Molnupiravir, reference compound]",viral load in the lungs of contact hamsters,SARS-CoV-2 Delta variant [1]; […],high viral load was detected
same,Fig. 2N: Virus titer,"SARS-CoV-2 Delta variant [1]; hamster, in vivo, listed as MPV",1250000 and 1400000 and 800000
same,viral loads in nasal turbinates,SARS-CoV-2 Delta variant [2],limited effect
same,viral loads in the lungs,SARS-CoV-2 Delta variant [2],decreased
same,Fig. 4E: Virus titer,SARS-CoV-2 Delta variant [2]; listed as MPV,700000 and 600000 and 1200000
same,Fig. 4G: Relative Ifng RNA level,SARS-CoV-2 Delta variant [2]; listed as MPV,3.06 and 2.07 and 2.71 and 2.27
same,Fig. 4H: Relative Il6 RNA level,SARS-CoV-2 Delta variant [2]; listed as MPV,2.40 and 3.11 and 2.02 and 2.46
same,Fig. 4I: Relative Il10 RNA level,SARS-CoV-2 Delta variant [2]; listed as MPV,3.33 and 2.30 and 2.69 and 2.83
same,Fig. 4J: Relative Cxcl10 RNA level,SARS-CoV-2 Delta variant [2]; listed as MPV,14.61 and 18.50 and 12.76 and 10.96
same,Fig. 4K: Neutralizing antibody titer,SARS-CoV-2 Delta variant [2]; listed as MPV,640 and 1280
same,Fig. 2H: Relative Ifng RNA level,SARS-CoV-2 Delta variant [3]; listed as MPV,3.06 and 2.07 and 2.71 and 2.27
same,Fig. 2I: Relative Il6 RNA level,SARS-CoV-2 Delta variant [3]; listed as MPV,2.40 and 3.11 and 2.02 and 2.46
same,Fig. 2J: Relative Il10 RNA level,SARS-CoV-2 Delta variant [3]; listed as MPV,3.33 and 2.30 and 2.69 and 2.83
same,Fig. 2K: Relative Cxcl10 RNA level,SARS-CoV-2 Delta variant [3]; listed as MPV,14.61 and 18.50 and 12.76 and 10.96
same,signal distribution of viral antigen in the lungs,SARS-CoV-2 Delta variant [4],decreased the viral distribution
same,Histopathological severity score,"SARS-CoV-2 Delta variant [5]; Fig. 5B, MPV group, individual animals, listed as MPV",17 and 13
same,Histopathological severity score,"SARS-CoV-2 Delta variant [5]; Fig. 5D, MPV group, individual animals, listed as MPV",17 and 12 and 18 and 19
same,lung pathology / histopathological findings of viral pneumonia,SARS-CoV-2 Delta variant [5],prominent
same,viral RNA by in situ hybridization (ISH),SARS-CoV-2 Delta variant [5]; [13],decreased
same,histopathological severity of viral pneumonia,SARS-CoV-2 Delta variant [5],neither MPV or S-217622 could attenuate
same,viral RNA by ISH,SARS-CoV-2 Delta variant [5],Positive signals for viral RNA were also detected
CC(C)(C)[C@H](NC(=O)C(F)(F)F)C(=O)N1C[C@H]2[C@@H]([C@H]1C(=O)N[C@H](C#N)C[C@@H]1CCNC1=O)C2(C)C [Nirmatrelvir],effect of CP-100356 on antiviral activity,SARS-CoV-2 Delta variant [6],enhanced
Cn1cnc(Cn2c(=O)[nH]/c(=N\c3cc4cn(C)nc4cc3Cl)n(Cc3cc(F)c(F)cc3F)c2=O)n1 [S-217622],Fig. 1I: Relative viral RNA to mock treated,"SARS-CoV-2 Delta variant [7]; Both stages, third column group c10-c13",0.047 and 0.045 and 0.032
same,effect on cellular entry process (0 to 2 hpi),"SARS-CoV-2 Delta variant [7]; Calu-3, 1 μM",but not the cellular entry process of infection
same,effect on post-entry process (2 to 7 hpi),"SARS-CoV-2 Delta variant [7]; Calu-3, 1 μM",has an effect on the post-entry process
same,Fig. 1I: Relative viral RNA to mock treated,"SARS-CoV-2 Delta variant [7]; Entry, first column group c0-c3",1.24 and 0.89 and 1.15
same,Fig. 1I: Relative viral RNA to mock treated,"SARS-CoV-2 Delta variant [7]; Entry, third column group c10-c13",0.033 and 0.037 and 0.04
same,Fig. 1I: Relative viral RNA to mock treated,"SARS-CoV-2 Delta variant [7]; Post-entry, first column group c0-c3",0.007 and 0.006
same,Fig. 1I: Relative viral RNA to mock treated,"SARS-CoV-2 Delta variant [7]; Post-entry, third column group c10-c13",1.03 and 0.85 and 0.71
same,effect of CP-100356 on antiviral activity,SARS-CoV-2 Delta variant [6],enhanced
same,progeny viral RNA in the culture supernatants,SARS-CoV-2 Delta variant [8],reduced the progeny viral RNA
same,viral load in the lungs of contact hamsters,SARS-CoV-2 Delta variant [1]; […],no detectable viral titers
same,Fig. 2N: Virus titer,"SARS-CoV-2 Delta variant [1]; hamster, in vivo, 200 mg/kg",n.d.(=100)
same,Fig. 2N: Virus titer,"SARS-CoV-2 Delta variant [1]; second block c10-c12 (six animals: contact hamsters, 6 days after co-housing), […], 200 mg/kg",n.d.(=100)
same,decrease of virus titer in the lung,SARS-CoV-2 Delta variant [2],greater than 10^3 fold
same,expression of Il6,SARS-CoV-2 Delta variant [2],decreased the expression of Il6
same,peak of body weight loss,SARS-CoV-2 Delta variant [2],7% and 5%
same,viral loads in nasal turbinates,SARS-CoV-2 Delta variant [2],limited effect
same,viral loads in the lungs,SARS-CoV-2 Delta variant [2],decreased
same,Fig. 4H: Relative Il6 RNA level,SARS-CoV-2 Delta variant [2]; 30 mg/kg,1.88 and 3.04 and 1.64 and 1.56
same,Fig. 4J: Relative Cxcl10 RNA level,SARS-CoV-2 Delta variant [2]; 30 mg/kg,5.91 and 3.38 and 3.37 and 5.99
same,Fig. 4C: Viral RNA,SARS-CoV-2 Delta variant [2]; 200 mg/kg,184497 and 149004 and 250553 and 219560
same,Fig. 4H: Relative Il6 RNA level,SARS-CoV-2 Delta variant [2]; 200 mg/kg,1.73 and 2.57 and 2.07 and 2.20
same,Fig. 4J: Relative Cxcl10 RNA level,SARS-CoV-2 Delta variant [2]; 200 mg/kg,0.55 and 0.70 and 0.74 and 0.64
same,antiviral activity compared with nirmatrelvir in hamsters,SARS-CoV-2 Delta variant [3],higher antiviral activity than nirmatrelvir
same,body weight,SARS-CoV-2 Delta variant [3],continuously gained weight
same,decrease in viral RNA load,SARS-CoV-2 Delta variant [3],more than 10^5 fold
same,expression of inflammatory cytokines,SARS-CoV-2 Delta variant [3],decreased the expression of inflammatory cytokines
same,seroconversion,SARS-CoV-2 Delta variant [3],No seroconversion was observed
same,virus titers,SARS-CoV-2 Delta variant [3],under the detection limit
same,Fig. 2D: Viral RNA,SARS-CoV-2 Delta variant [3]; 30 mg/kg,9351446 and 5264474 and 6254487 and 4687980
same,Fig. 2F: Virus titer,SARS-CoV-2 Delta variant [3]; 30 mg/kg,2500000 and 1700000 and 2600000 and 3300000
same,Fig. 2I: Relative Il6 RNA level,SARS-CoV-2 Delta variant [3]; 30 mg/kg,1.88 and 3.04 and 1.64 and 1.56
same,Fig. 2K: Relative Cxcl10 RNA level,SARS-CoV-2 Delta variant [3]; 30 mg/kg,5.91 and 3.38 and 3.37 and 5.99
same,Fig. 2L: Neutralizing antibody titer,SARS-CoV-2 Delta variant [3]; 30 mg/kg,160 and 320
same,Fig. 2F: Virus titer,SARS-CoV-2 Delta variant [3]; 200 mg/kg,n.d.(=100)
same,Fig. 2G: Virus titer,SARS-CoV-2 Delta variant [3]; 200 mg/kg,n.d.(=100)
same,Fig. 2I: Relative Il6 RNA level,SARS-CoV-2 Delta variant [3]; 200 mg/kg,1.73 and 2.57 and 2.07 and 2.20
same,Fig. 2K: Relative Cxcl10 RNA level,SARS-CoV-2 Delta variant [3]; 200 mg/kg,0.55 and 0.70 and 0.74 and 0.64
same,Fig. 2L: Neutralizing antibody titer,SARS-CoV-2 Delta variant [3]; 200 mg/kg,n.d.(=10)
same,signal distribution of viral antigen in the lungs,SARS-CoV-2 Delta variant [4],limited
same,LDH release into basal culture medium,SARS-CoV-2 Delta variant [9],decreased
same,progeny virus titers,SARS-CoV-2 Delta variant [10],< 100
same,antiviral potency against Omicron variant (lineage BA.1),[11],remarkable antiviral potency
same,Histopathological severity score,"SARS-CoV-2 Delta variant [5]; Fig. 5B, S-217622 dose group 30, individual animals",14 and 7 and 4 and 5
same,Histopathological severity score,"SARS-CoV-2 Delta variant [5]; Fig. 5B, S-217622 dose group 200, individual animals",3 and 5 and 4 and 7
same,Histopathological severity score,"SARS-CoV-2 Delta variant [5]; Fig. 5D, S-217622 dose group 30, individual animals",14 and 16 and 15 and 13
same,Histopathological severity score,"SARS-CoV-2 Delta variant [5]; Fig. 5D, S-217622 dose group 200, individual animals",17 and 19 and 20 and 6
same,lung pathology / histopathological findings of viral pneumonia,SARS-CoV-2 Delta variant [5],attenuated the lung pathology in a dose-dependent manner
same,viral RNA by in situ hybridization (ISH),SARS-CoV-2 Delta variant [5]; [13],decreased
same,Histopathological severity score,SARS-CoV-2 Delta variant [5]; [14],lower than the vehicle control group
same,viral RNA by in situ hybridization (ISH),SARS-CoV-2 Delta variant [5]; [14],undetectable
same,histopathological severity of viral pneumonia,SARS-CoV-2 Delta variant [5],neither MPV or S-217622 could attenuate
same,viral RNA by ISH,SARS-CoV-2 Delta variant [5],Positive signals for viral RNA were also detected
same,Infection with SARS-CoV-2 (immunofluorescence),SARS-CoV-2 Delta variant [12],inhibited
